Data as given in PMC9514063 (Protein Science : A Publication of the Protein Society, 2022).

Biological target: proBFT-3 (Bacteroides fragilis, UniProt O86049)
Assay: isothermal titration calorimetry
Type: binding

proBFT-3, sequence (O86049 18-397 limits assumed): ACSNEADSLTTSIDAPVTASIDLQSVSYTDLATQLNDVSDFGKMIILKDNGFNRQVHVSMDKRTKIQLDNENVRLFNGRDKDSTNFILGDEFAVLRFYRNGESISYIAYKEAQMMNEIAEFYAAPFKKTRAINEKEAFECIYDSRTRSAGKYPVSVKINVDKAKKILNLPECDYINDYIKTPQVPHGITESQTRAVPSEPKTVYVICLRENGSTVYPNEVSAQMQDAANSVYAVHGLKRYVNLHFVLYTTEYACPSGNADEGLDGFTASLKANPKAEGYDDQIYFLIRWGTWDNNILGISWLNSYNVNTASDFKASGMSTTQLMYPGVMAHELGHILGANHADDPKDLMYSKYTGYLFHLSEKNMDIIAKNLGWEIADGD

| Kd [µM] | SMILES |
| --- | --- |
| 20 | C[C@@H]1CCc2cc(F)cc3c(=O)c(C(=O)O)cn1c23 [C-4, flumequine] |
| 22 | COc1ccc([C@@H]2CC(=O)c3c(O)cc(O)cc3O2)cc1O [C-10, hesperetin] |
